Measured values: PubChem BioAssay (NCI)
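Briefly, cells in 96-well plates were exposed to five compound concentrations for 48 h, and endpoints were estimated by linear interpolation. At the TGI there is no net growth.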 Where a SMILES comes first, the peptide text is derived from it. [ ]: non-standard residue; d: D form. The star is where a group is joined. X28 = COC1=CC(=O)N(C(=O)[C@@H](O*)C(C)C)[C@H]1Cc1ccccc1; NMeV = CN[C@H](C(=O)O)C(C)C; Hexanoyl = CCCCCC(=O)*

Legend:
Assay in all cases: NCI tumour cell line growth inhibition, 48 h
HT29 colon = test system: HT29 colon
786-0 renal = test system: 786-0 renal
SK-MEL-5 melanoma = test system: SK-MEL-5 melanoma
MOLT-4 leukemia = test system: MOLT-4 leukemia
MDA-MB-435 = test system: MDA-MB-435
SNB-19 CNS = test system: SNB-19 CNS
SN12C renal = test system: SN12C renal
KM12 colon = test system: KM12 colon
OVCAR-5 ovarian = test system: OVCAR-5 ovarian
K-562 leukemia = test system: K-562 leukemia
MALME-3M melanoma = test system: MALME-3M melanoma
UACC-62 melanoma = test system: UACC-62 melanoma
NCI-H460 lung = test system: NCI-H460 lung
SF-539 CNS = test system: SF-539 CNS
RXF 393 renal = test system: RXF 393 renal
SW-620 colon = test system: SW-620 colon
SNB-75 CNS = test system: SNB-75 CNS
U251 CNS = test system: U251 CNS
SF-295 CNS = test system: SF-295 CNS
NCI-H226 lung = test system: NCI-H226 lung

COc1ccc2c(C)cc(N/N=C(\C)C=O)nc2c1
TGI (HT29 colon): 25 µM | TGI (786-0 renal): 28.6 µM | TGI (SK-MEL-5 melanoma): 26.7 µM | TGI (MOLT-4 leukemia): 15.9 µM | TGI (MDA-MB-435): 25.5 µM | TGI (SNB-19 CNS): 31.6 µM | TGI (SN12C renal): 26.8 µM | TGI (KM12 colon): 25.8 µM | TGI (OVCAR-5 ovarian): 28.2 µM | TGI (K-562 leukemia): 5.05 µM | TGI (MALME-3M melanoma): 28 µM | TGI (UACC-62 melanoma): 27.3 µM | TGI (NCI-H460 lung): 24.9 µM | TGI (SF-539 CNS): 20.3 µM | TGI (RXF 393 renal): 30.2 µM | TGI (SW-620 colon): 27.5 µM | TGI (SNB-75 CNS): 29.8 µM | TGI (U251 CNS): 30.4 µM | TGI (SF-295 CNS): 28.8 µM | TGI (NCI-H226 lung): 24.7 µM

COc1cccc(N=Cc2cc3cc(Br)ccc3nc2Cl)c1
TGI (HT29 colon): > 50 µM | TGI (786-0 renal): 11.3 µM | TGI (SK-MEL-5 melanoma): > 50 µM | TGI (MOLT-4 leukemia): > 50 µM | TGI (MDA-MB-435): > 50 µM | TGI (SNB-19 CNS): > 50 µM | TGI (SN12C renal): > 50 µM | TGI (KM12 colon): > 50 µM | TGI (OVCAR-5 ovarian): > 50 µM | TGI (K-562 leukemia): > 50 µM | TGI (MALME-3M melanoma): > 50 µM | TGI (NCI-H460 lung): > 50 µM | TGI (SF-539 CNS): > 50 µM | TGI (RXF 393 renal): > 50 µM | TGI (SW-620 colon): > 50 µM | TGI (SNB-75 CNS): > 50 µM | TGI (SF-295 CNS): > 50 µM | TGI (NCI-H226 lung): 25.7 µM

CCCCCC(=O)N[C@H](C(=O)N[C@H](C(=O)N(C)[C@H](C(=O)N1CCC[C@H]1C(=O)N1CCC[C@H]1C(=O)O[C@H](C(=O)N1C(=O)C=C(OC)[C@@H]1Cc1ccccc1)C(C)C)C(C)C)C(C)C)C(C)C (Hexanoyl-VV[NMeV]PP-X28)
TGI (HT29 colon): > 100 µM | TGI (786-0 renal): > 100 µM | TGI (MOLT-4 leukemia): > 100 µM | TGI (MDA-MB-435): > 100 µM | TGI (SN12C renal): > 100 µM | TGI (KM12 colon): > 100 µM | TGI (OVCAR-5 ovarian): > 100 µM | TGI (K-562 leukemia): > 100 µM | TGI (MALME-3M melanoma): > 100 µM | TGI (UACC-62 melanoma): > 100 µM | TGI (NCI-H460 lung): > 100 µM | TGI (SF-539 CNS): > 100 µM | TGI (RXF 393 renal): 62.7 µM | TGI (SW-620 colon): > 100 µM | TGI (SNB-75 CNS): 38.5 µM | TGI (U251 CNS): > 100 µM | TGI (SF-295 CNS): > 100 µM | TGI (NCI-H226 lung): > 100 µM

N=c1oc2cc(O)ccc2cc1C(=O)NCc1ccccc1
TGI (HT29 colon): > 100 µM | TGI (786-0 renal): > 100 µM | TGI (SK-MEL-5 melanoma): 29.5 µM | TGI (MOLT-4 leukemia): 53.3 µM | TGI (MDA-MB-435): 58.3 µM | TGI (SNB-19 CNS): 96.9 µM | TGI (SN12C renal): 48.8 µM | TGI (KM12 colon): > 100 µM | TGI (OVCAR-5 ovarian): > 100 µM | TGI (K-562 leukemia): 28.2 µM | TGI (MALME-3M melanoma): 58.7 µM | TGI (NCI-H460 lung): > 100 µM | TGI (SF-539 CNS): 63.3 µM | TGI (RXF 393 renal): 85 µM | TGI (SW-620 colon): 81.6 µM | TGI (SNB-75 CNS): 43.8 µM | TGI (U251 CNS): > 100 µM | TGI (SF-295 CNS): > 100 µM | TGI (NCI-H226 lung): > 100 µM

CC(=O)N1C(c2[nH]c3ccccc3c2-c2ccccc2)CCN1c1ccccc1 (stereo unspecified)
TGI (HT29 colon): > 10 µM | TGI (786-0 renal): > 10 µM | TGI (SK-MEL-5 melanoma): > 10 µM | TGI (MOLT-4 leukemia): > 10 µM | TGI (MDA-MB-435): > 10 µM | TGI (SNB-19 CNS): > 10 µM | TGI (SN12C renal): > 10 µM | TGI (OVCAR-5 ovarian): > 10 µM | TGI (K-562 leukemia): > 10 µM | TGI (MALME-3M melanoma): > 10 µM | TGI (NCI-H460 lung): > 10 µM | TGI (SF-539 CNS): > 10 µM | TGI (RXF 393 renal): > 10 µM | TGI (SW-620 colon): > 10 µM | TGI (SNB-75 CNS): > 10 µM | TGI (SF-295 CNS): > 10 µM | TGI (NCI-H226 lung): > 10 µM

COCCN(C(C)=O)C1CCC2(SCCS2)c2[nH]c3ccccc3c21 (stereo unspecified)
TGI (HT29 colon): > 100 µM | TGI (786-0 renal): > 100 µM | TGI (SK-MEL-5 melanoma): > 100 µM | TGI (MOLT-4 leukemia): > 100 µM | TGI (MDA-MB-435): > 100 µM | TGI (SNB-19 CNS): > 100 µM | TGI (SN12C renal): > 100 µM | TGI (KM12 colon): > 100 µM | TGI (OVCAR-5 ovarian): > 100 µM | TGI (K-562 leukemia): > 100 µM | TGI (MALME-3M melanoma): > 100 µM | TGI (NCI-H460 lung): > 100 µM | TGI (SF-539 CNS): > 100 µM | TGI (RXF 393 renal): > 100 µM | TGI (SW-620 colon): > 100 µM | TGI (SNB-75 CNS): > 100 µM | TGI (U251 CNS): > 100 µM | TGI (SF-295 CNS): > 100 µM | TGI (NCI-H226 lung): > 100 µM
